The record followed here is patent US20200237871A1, “METHODS FOR MITIGATING LIVER INJURY AND PROMOTING LIVER HYPERTROPHY, REGENERATION AND CELL ENGRAFTMENT IN CONJUNCTION WITH RADIATION AND/OR RADIOMIMETIC TREATMENTS” (Janssen Pharmaceutica NV, priority 2019, published 2020).

The assay deals with cirrhotic mice. The experiment in a line: Extent of radiation induced liver disease (RILD) by SPECT-CT in cirrhotic mice (Example 5). Particulars: 50 Gy HIR, RWJ-800088 with LSEC transplants. The format is in vivo, mouse. As for the experimental part: Male C57BL/6 DPPIV knockout male mice (10-14 weeks) were injected intraperitoneally with carbon tetrachloride (CCl4) twice a week for a minimum of 12 weeks until a maximum of when 5 out of 30 mice perish from the CCl4 injection. Immediately after, the animals were randomly distributed into the experimental groups.
Image-guided external beam irradiation was performed using a small animal radiation research platform (SARRP, Xstrahl Inc., Suwanee, Ga.). Mice were given gastrografin contrast through gavage to improve visualization of the gastrointestinal (GI) tract. […]
The methods were identical to Experiment 4 as described above with the exception that the CCl4 dose was increased to 20% in olive oil over 12 weeks. To evaluate the effect of RWJ-800088+Liver Sinusoidal Endothelial Cells (LSEC), RWJ-800088+Plerixafor (a selective inhibitor of CXCR4 administered pre- and post-irradiation) on radiation induced liver disease as measured by SPECT-CT in cirrhotic mice after single hepatic irradiation (HIR) at 50 Gy. […]
The dosing solution of RWJ-800088 was prepared as described in Experiment 4. […] The number of viral particles and infectious units' ratio was determined by infecting 293 cells at various dilutions, followed by immunocytochemical staining for adenoviral hexons. The infectious titer was calculated from the number of plaques formed per 1,000 viral particles. […]

“Also recorded” adds a separate entry of the source.

With “methoxypolyethyleneglycol20000-propionyl-L-Isoleucyl-L-Glutamyl-Glycyl-L-Prolyl-L-Threonyl-L-Leucyl-L-Arginyl-L-Glutaminyl-L-2-Naphthylalanyl-L-Leucyl-L-Alanyl-L-Alanyl-L-Arginyl-Sarcosyl-Ne-(methoxypolyethyleneglycol20000-propionyl-L-Isoleucyl-L-Glutamyl-Glycyl-L-Prolyl-L-Threonyl-L-Leucyl-L-Arginyl-L-Glutaminyl-L-2-Naphthyl alanyl-L-Leucyl-L-Alanyl-L-Alanyl-L-Arginyl-Sarcosyl-)-Lysinamide [RWJ-800088]”, the “protection against RILD (SPECT-CT)” value was “trend toward protection against RILD; also recorded: protected against RILD”.
